Reference: the supplement of paper PMC10307832

How the values were obtained:
Test in all cases: relative viability (nuclei count vs DMSO), 5 days (fraction); higher = more cells survive
[1] = compound: COc1cc2c(Oc3ccc4[nH]c(C)cc4c3F)ncnc2cc1OCCCN1CCCC1 [Cediranib] + CS(=O)(=O)N1CCN(Cc2cc3nc(-c4cccc5[nH]ncc45)nc(N4CCOCC4)c3s2)CC1 [Pictilisib] (partner 1 µM)
Summary of the method: (§1)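 Five library-drug doses in √10 steps were combined with a fixed anchor-drug dose, or a single drug was given alone, by pin tool to lung cancer cell lines in 1536-well plates the day after seeding. Nuclei were stained and counted after 5 days. Relative viability is the nuclei count in treated wells over that in vehicle wells, taken as the median of duplicate plates.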

[2] = compound: O=C(C[C@H]1NCCC[C@@H]1O)Cn1cnc2cc(Br)c(Cl)cc2c1=O (racemic) [Halofuginone] + Cc1cc(Nc2cc(N3CCN(C)CC3)nc(Sc3ccc(NC(=O)C4CC4)cc3)n2)n[nH]1 [Tozasertib] (partner 0.1 µM)
Summary of the method: as §1

[3] = compound: Nc1ncn([C@H]2C[C@H](O)[C@@H](CO)O2)c(=O)n1 [Decitabine] + Nc1nc2[nH]cc(CCc3ccc(C(=O)N[C@@H](CCC(=O)O)C(=O)O)cc3)c2c(=O)[nH]1 [Pemetrexed] (partner 0.2 µM)
Summary of the method: as §1

[4] = compound: O=C(C[C@H]1NCCC[C@@H]1O)Cn1cnc2cc(Br)c(Cl)cc2c1=O (racemic) [Halofuginone] + CC(C)C[C@H](NC(=O)[C@H](Cc1ccccc1)NC(=O)c1cnccn1)B(O)O [Bortezomib] (partner 0.002 µM)
Summary of the method: as §1

| Cell Line | relative viability ([1]; first compound 0.04 µM) | relative viability ([1]; first compound 0.1265 µM) | relative viability ([1]; first compound 0.4 µM) | relative viability ([1]; first compound 1.265 µM) | relative viability ([1]; first compound 4 µM) | relative viability ([2]; first compound 0.001 µM) | relative viability ([2]; first compound 0.003162 µM) | relative viability ([2]; first compound 0.01 µM) | relative viability ([2]; first compound 0.03162 µM) | relative viability ([2]; first compound 0.1 µM) | relative viability ([3]; first compound 0.04 µM) | relative viability ([3]; first compound 0.1265 µM) | relative viability ([3]; first compound 0.4 µM) | relative viability ([3]; first compound 1.265 µM) | relative viability ([3]; first compound 4 µM) | relative viability ([4]; first compound 0.001 µM) | relative viability ([4]; first compound 0.003162 µM) | relative viability ([4]; first compound 0.01 µM) | relative viability ([4]; first compound 0.03162 µM) | relative viability ([4]; first compound 0.1 µM) |
| --- | --- | --- | --- | --- | --- | --- | --- | --- | --- | --- | --- | --- | --- | --- | --- | --- | --- | --- | --- | --- |
| NCI-H358 | 0.323 | 0.462 | 0.314 | 0.271 | 0.404 | 0.107 | 0.0894 | 0.095 | 0.0812 | 0.0809 | 0.152 | 0.168 | 0.129 | 0.131 | 0.161 | – | – | – | – | – |
| SW 900 | – | – | – | – | – | 0.611 | 0.557 | 0.558 | 0.46 | 0.258 | 0.415 | 0.411 | 0.345 | 0.277 | 0.303 | – | – | – | – | – |
| NCI-H2087 | 0.921 | 0.763 | 0.825 | 0.752 | 0.935 | 0.28 | 0.322 | 0.251 | 0.23 | 0.114 | 0.573 | 0.49 | 0.451 | 0.291 | 0.267 | 0.758 | 0.839 | 0.86 | 0.676 | 0.917 |
| NCI-H522 | – | – | – | – | – | 0.528 | 0.566 | 0.572 | 0.512 | 0.491 | 0.979 | 0.839 | 0.677 | 0.705 | 0.505 | – | – | – | – | – |
| ABC-1 | 0.786 | 0.566 | 0.69 | – | 0.737 | 0.141 | 0.142 | 0.162 | 0.189 | 0.158 | – | – | – | – | – | 0.255 | 0.328 | 0.24 | 0.367 | 0.279 |
| NCI-H1563 | 0.727 | 0.576 | 0.711 | 0.66 | 0.595 | – | – | – | – | – | 0.791 | 0.899 | 1.43 | 0.751 | 0.858 | 0.708 | 0.885 | 0.686 | 0.585 | 0.515 |
| NCI-H1703 | 0.226 | 0.209 | 0.209 | 0.194 | 0.221 | – | – | – | – | – | – | – | – | – | – | 0.363 | 0.333 | 0.305 | 0.282 | 0.224 |
| SK-MES-1 | 0.349 | 0.441 | 0.284 | 0.391 | 0.383 | 1.03 | 0.926 | 0.754 | 0.647 | 0.168 | 0.828 | 0.682 | 0.458 | 0.343 | 0.338 | – | – | – | – | – |
| NCI-H1944 | 0.33 | 0.494 | 0.328 | 0.297 | 0.328 | 0.264 | 0.282 | 0.243 | 0.237 | 0.196 | 0.438 | 0.448 | 0.288 | 0.228 | 0.211 | – | – | – | – | – |
| NCI-H2170 | 0.259 | 0.275 | 0.306 | 0.254 | 0.301 | 0.731 | 0.678 | 0.812 | 0.679 | 0.728 | 0.276 | 0.221 | 0.227 | 0.217 | 0.21 | – | – | – | – | – |
| NCI-H727 | 0.515 | 0.169 | 0.289 | 0.325 | 0.3 | 0.706 | 0.778 | 0.578 | 0.615 | 0.33 | – | – | – | – | – | 0.981 | 0.798 | 0.927 | 0.856 | 0.468 |
| NCI-H1792 | 0.305 | 0.33 | 0.3 | 0.312 | 0.291 | – | – | – | – | – | 0.715 | 0.894 | 0.587 | 0.309 | 0.255 | 0.965 | 1.01 | 1.01 | 0.942 | 0.866 |
| NCI-H1648 | – | – | – | – | – | 0.763 | 0.526 | 0.643 | 0.44 | 0.4 | 0.637 | 0.582 | 0.506 | 0.483 | 0.435 | – | – | – | – | – |
| EBC-1 | 0.417 | 0.516 | 0.402 | 0.407 | 0.467 | – | – | – | – | – | – | – | – | – | – | 0.507 | 0.616 | 0.458 | 0.325 | 0.135 |
| NCI-H1395 | 0.58 | – | 0.593 | 0.557 | 0.591 | 0.893 | 0.72 | 0.797 | 0.769 | 0.656 | 0.64 | 0.685 | 0.744 | 0.474 | 0.484 | – | – | – | – | – |
| LK-2 | 0.607 | 0.524 | 0.573 | 0.591 | 0.319 | 0.163 | 0.164 | 0.184 | 0.16 | 0.181 | 0.194 | 0.256 | 0.223 | 0.245 | 0.211 | – | – | – | – | – |
| NCI-H1299 | 0.866 | 0.844 | 0.719 | 0.853 | 0.748 | – | – | – | – | – | – | – | – | – | – | 1.08 | 1.02 | 1 | 0.986 | 0.851 |
| A549 | 0.538 | 0.628 | 0.485 | 0.477 | 0.532 | – | – | – | – | – | – | – | – | – | – | – | – | – | – | – |
| NCI-H1793 | 0.404 | 0.294 | 0.345 | – | 0.299 | 0.418 | 0.359 | 0.276 | 0.34 | 0.226 | 0.692 | 0.875 | 0.511 | 0.44 | 0.303 | – | – | – | – | – |
| IA-LM | 0.369 | 0.577 | 0.315 | 0.406 | 0.361 | – | – | – | – | – | – | – | – | – | – | 0.894 | 0.741 | 0.664 | 0.533 | 0.0776 |
